Columns and labels:
[1] = biological target: T1, Human μ-opioid (MOP) (Homo sapiens, UniProt P35372); experiment: Radioligand binding, human μ-opioid (MOP) membranes, FlashPlate, [3H]-Naloxone; details: compound at 10 μM, [3H]-Naloxone
T1 construct: purchased Perkin Elmer Biosignal
Outline: (§1)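 Cloned human receptor membranes were coated onto FlashPlate wells and incubated with radioligand and compound (added from a 0.5 mM DMSO daughter plate) for 1 hour at room temperature in the dark. Scintillation counting gave percent inhibition, with DMSO defining total and reference ligand defining non-specific binding.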

[2] = biological target: T2, Mouse urotensin (mUR2) (Mus musculus, UniProt Q8VIH9); experiment: Radioligand binding, mouse urotensin mUR2 membranes, FlashPlate, [125I]-Urotensin II; details: compound at 10 μM, [125I]-Urotensin II
T2 construct: purchased Perkin Elmer Biosignal
T2 sequence (Q8VIH9 1-385): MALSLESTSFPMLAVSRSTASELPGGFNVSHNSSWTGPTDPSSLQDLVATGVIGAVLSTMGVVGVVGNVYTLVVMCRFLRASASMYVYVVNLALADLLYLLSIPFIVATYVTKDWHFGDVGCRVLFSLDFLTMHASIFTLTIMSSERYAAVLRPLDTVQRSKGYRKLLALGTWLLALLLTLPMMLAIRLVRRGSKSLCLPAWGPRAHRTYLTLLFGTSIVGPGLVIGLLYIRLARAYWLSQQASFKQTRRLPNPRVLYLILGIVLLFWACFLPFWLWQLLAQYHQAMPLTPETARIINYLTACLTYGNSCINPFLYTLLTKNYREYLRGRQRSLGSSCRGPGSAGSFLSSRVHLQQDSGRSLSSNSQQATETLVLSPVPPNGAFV
Outline: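 Cloned mouse urotensin (mUR2) receptor membranes from Perkin Elmer Biosignal were immobilized in FlashPlate microplates using a proprietary coating. Each well got 19.5 μl buffer, then 0.5 μl of DMSO, reference ligand, or compound. Adding 5 μl of [125I]-Urotensin II, diluted to 5× final concentration in binding buffer, started binding. Plates were sealed with TopSeal-A and incubated 1 hour at room temperature in the dark. Wells were counted for 30 seconds each on a TopCount after a 60-second delay, and percentage inhibition was calculated.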

[3] = biological target: T3, Human opioid (ORL1) (Homo sapiens, UniProt P41146); experiment: Radioligand binding, human opioid ORL1 membranes, FlashPlate, [125I]-Nociceptin; details: compound at 10 μM, [125I]-Nociceptin
T3 construct: purchased Perkin Elmer Biosignal
Outline: as §1

[4] = biological target: T4, Human melanocortin (MC5) (Homo sapiens, UniProt P33032); experiment: Radioligand binding, human melanocortin MC5 membranes, FlashPlate, [125I]-NDP-αMSH; details: compound at 10 μM, [125I]-NDP-αMSH
T4 construct: purchased Perkin Elmer Biosignal
Outline: as §1

[5] = biological target: T5, Human Melanocortin (MC4) (Homo sapiens, UniProt P32245); experiment: Radioligand binding, human melanocortin MC4 membranes, FlashPlate, [125I]-NDP-αMSH; details: compound at 10 μM, [125I]-NDP-αMSH
T5 construct: purchased Perkin Elmer Biosignal
Outline: as §1

[6] = biological target: T6, Human κ-Opioid (KOP) (Homo sapiens, UniProt P41145); experiment: Radioligand binding, human κ-opioid (KOP) membranes, filtration, [3H]-Diprenorphine; details: compound at 10 μM, [3H]-Diprenorphine
T6 construct: purchased Perkin Elmer Biosignal
Outline: (§2)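 Membranes from cloned human receptors were incubated with compound and radioligand for 1 hour at room temperature. Bound ligand was collected on 0.3% PEI-soaked filters, washed with cold 50 mM Tris-HCl pH 7.4, and counted by scintillation. Percent inhibition was computed against DMSO totals and reference-ligand nonspecific wells.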

[7] = biological target: T7, Human neurokinin (NK1) (Homo sapiens, UniProt P25103); experiment: Radioligand binding, human neurokinin NK1 membranes, filtration, [125I]-Substance P; details: compound at 10 μM, [125I]-Substance P
T7 construct: purchased Perkin Elmer Biosignal
Outline: as §2

[8] = biological target: T8, Human Melanocortin (MC3) (Homo sapiens, UniProt P41968); experiment: Radioligand binding, human melanocortin MC3 membranes, FlashPlate, [125I]-NDP-αMSH; details: compound at 10 μM, [125I]-NDP-αMSH
T8 construct: purchased Perkin Elmer Biosignal
Outline: as §1

[9] = biological target: T9, Human δ-opioid (DOP) (Homo sapiens, UniProt P41143); experiment: Radioligand binding, human δ-opioid (DOP) membranes, FlashPlate, [3H]-Bremazocine; details: compound at 10 μM, [3H]-Bremazocine
T9 construct: purchased Perkin Elmer Biosignal
Outline: as §1

[10] = biological target: T10, Human neuropeptide Y (NPY-Y1) (Homo sapiens, UniProt P25929); experiment: Radioligand binding, human neuropeptide Y NPY-Y1 membranes, FlashPlate, [125I]-PYY; details: compound at 10 μM, [125I]-PYY
T10 construct: purchased Perkin Elmer Biosignal
T10 sequence (P25929 1-384): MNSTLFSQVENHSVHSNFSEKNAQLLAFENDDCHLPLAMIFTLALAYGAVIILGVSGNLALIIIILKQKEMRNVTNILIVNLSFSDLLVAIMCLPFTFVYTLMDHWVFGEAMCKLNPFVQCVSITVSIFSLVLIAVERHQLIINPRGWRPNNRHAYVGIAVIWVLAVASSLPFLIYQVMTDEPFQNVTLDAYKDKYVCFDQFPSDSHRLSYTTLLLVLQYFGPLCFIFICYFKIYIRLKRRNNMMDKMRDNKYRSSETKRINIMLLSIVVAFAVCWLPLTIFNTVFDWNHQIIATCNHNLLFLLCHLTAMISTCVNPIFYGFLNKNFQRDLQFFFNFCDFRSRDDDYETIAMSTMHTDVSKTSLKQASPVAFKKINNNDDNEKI
Outline: as §1

[11] = biological target: T11, Human melanin-concentrating hormone (MCH1) (Homo sapiens, UniProt Q99705); experiment: Radioligand binding, human melanin-concentrating hormone MCH1 membranes, FlashPlate, [125I]-S36057; details: compound at 10 μM; for A6: inhibition of radioligand binding, human melanin-concentrating hormone (MCH1): [125I]-S36057
T11 construct: purchased Perkin Elmer Biosignal
Outline: as §1

T8 sequence (P41968 whole entry): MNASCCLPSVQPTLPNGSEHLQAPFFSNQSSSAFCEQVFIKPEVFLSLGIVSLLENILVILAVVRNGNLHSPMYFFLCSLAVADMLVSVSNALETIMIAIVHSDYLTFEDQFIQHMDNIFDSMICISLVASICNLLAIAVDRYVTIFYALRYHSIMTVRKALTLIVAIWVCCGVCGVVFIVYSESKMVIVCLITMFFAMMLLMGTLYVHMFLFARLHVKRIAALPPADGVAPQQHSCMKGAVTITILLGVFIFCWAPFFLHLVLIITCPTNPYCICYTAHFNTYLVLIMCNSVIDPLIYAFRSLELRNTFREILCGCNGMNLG
T6 sequence (P41145 whole entry): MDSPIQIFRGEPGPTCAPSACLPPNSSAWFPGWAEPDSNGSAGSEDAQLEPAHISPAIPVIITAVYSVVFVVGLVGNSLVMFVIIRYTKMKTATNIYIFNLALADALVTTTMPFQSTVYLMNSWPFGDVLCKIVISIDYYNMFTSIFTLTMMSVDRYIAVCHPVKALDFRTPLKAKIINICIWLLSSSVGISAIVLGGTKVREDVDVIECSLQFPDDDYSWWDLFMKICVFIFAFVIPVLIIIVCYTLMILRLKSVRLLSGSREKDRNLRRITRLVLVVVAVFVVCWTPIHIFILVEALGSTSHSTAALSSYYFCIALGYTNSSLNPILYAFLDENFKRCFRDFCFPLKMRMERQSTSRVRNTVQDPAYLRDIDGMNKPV
T4 sequence (P33032 whole entry): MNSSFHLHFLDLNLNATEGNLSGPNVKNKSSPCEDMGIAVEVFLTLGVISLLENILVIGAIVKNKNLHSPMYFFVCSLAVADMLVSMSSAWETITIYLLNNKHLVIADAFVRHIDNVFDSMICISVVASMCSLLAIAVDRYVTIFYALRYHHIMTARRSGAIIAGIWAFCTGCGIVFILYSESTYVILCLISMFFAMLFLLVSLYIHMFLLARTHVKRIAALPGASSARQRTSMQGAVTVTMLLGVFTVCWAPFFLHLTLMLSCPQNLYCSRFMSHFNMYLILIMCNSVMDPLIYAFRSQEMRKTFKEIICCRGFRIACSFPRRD
T5 sequence (P32245 whole entry): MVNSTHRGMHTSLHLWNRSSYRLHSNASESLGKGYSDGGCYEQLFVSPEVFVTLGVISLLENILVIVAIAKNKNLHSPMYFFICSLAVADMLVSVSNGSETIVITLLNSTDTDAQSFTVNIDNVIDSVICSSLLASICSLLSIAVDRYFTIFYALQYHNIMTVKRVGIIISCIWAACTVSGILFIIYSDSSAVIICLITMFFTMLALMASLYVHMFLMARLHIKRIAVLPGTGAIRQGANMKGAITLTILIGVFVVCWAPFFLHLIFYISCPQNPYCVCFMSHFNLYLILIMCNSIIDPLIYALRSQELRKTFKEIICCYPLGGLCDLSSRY
T11 sequence (Q99705 whole entry): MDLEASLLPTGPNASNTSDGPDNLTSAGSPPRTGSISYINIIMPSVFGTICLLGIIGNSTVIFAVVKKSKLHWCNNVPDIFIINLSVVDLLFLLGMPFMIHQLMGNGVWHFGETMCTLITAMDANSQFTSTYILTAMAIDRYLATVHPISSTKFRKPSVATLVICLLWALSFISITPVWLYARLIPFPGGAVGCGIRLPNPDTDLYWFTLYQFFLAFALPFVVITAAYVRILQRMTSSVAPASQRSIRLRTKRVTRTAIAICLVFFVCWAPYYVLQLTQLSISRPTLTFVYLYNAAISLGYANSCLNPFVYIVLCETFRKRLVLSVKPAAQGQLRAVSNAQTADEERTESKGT
T3 sequence (P41146 whole entry): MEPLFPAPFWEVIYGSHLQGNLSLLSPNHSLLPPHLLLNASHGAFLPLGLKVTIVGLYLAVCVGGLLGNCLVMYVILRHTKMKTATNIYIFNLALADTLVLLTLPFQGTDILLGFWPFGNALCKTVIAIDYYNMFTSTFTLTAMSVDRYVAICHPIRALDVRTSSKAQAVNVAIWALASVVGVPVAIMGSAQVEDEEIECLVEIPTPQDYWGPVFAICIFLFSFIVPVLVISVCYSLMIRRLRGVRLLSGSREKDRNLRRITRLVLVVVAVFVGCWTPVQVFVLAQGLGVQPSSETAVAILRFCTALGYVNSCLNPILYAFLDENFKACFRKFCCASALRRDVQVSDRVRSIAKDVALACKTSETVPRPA
T1 sequence (P35372 whole entry): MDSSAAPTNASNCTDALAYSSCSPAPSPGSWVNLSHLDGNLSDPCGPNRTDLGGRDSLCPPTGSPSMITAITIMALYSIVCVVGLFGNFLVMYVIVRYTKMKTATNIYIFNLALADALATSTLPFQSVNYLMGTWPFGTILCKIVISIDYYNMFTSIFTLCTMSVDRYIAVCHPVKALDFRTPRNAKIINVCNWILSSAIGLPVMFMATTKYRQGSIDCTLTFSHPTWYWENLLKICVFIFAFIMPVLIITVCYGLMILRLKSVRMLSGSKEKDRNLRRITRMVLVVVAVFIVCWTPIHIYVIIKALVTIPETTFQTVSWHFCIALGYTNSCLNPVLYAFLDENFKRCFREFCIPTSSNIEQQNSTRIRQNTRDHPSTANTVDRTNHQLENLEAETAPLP
T9 sequence (P41143 whole entry): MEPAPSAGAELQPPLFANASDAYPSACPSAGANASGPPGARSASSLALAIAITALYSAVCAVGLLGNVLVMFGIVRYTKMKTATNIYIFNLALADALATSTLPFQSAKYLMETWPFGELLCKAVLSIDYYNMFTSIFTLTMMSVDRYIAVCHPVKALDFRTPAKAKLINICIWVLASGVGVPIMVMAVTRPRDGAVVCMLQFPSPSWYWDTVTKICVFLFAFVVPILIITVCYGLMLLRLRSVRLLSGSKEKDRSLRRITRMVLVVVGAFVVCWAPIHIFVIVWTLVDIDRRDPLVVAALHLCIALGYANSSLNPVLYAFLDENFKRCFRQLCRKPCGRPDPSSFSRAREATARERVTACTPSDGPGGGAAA
T7 sequence (P25103 whole entry): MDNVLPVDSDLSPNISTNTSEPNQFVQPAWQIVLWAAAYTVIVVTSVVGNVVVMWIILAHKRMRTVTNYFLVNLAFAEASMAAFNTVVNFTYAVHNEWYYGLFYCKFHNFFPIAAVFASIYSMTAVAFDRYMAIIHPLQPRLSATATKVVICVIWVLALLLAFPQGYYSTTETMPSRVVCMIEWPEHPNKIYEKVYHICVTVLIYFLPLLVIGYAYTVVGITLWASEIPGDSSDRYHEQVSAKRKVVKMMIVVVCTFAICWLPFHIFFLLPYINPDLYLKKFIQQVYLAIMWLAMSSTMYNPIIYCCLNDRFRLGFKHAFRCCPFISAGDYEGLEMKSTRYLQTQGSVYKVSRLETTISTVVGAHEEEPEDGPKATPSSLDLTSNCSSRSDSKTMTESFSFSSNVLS

Row | Compound | A7: inhibition of radioligand binding, human μ-opioid (MOP) [1] | A11: inhibition of radioligand binding, mouse urotensin (mUR2) [2] | A10: inhibition of radioligand binding, human opioid (ORL1) [3] | A5: inhibition of radioligand binding, human melanocortin (MC5) [4] | A4: inhibition of radioligand binding, human melanocortin (MC4) [5] | A2: inhibition of radioligand binding, human κ-opioid (KOP) [6] | A8: inhibition of radioligand binding, human neurokinin (NK1) [7] | A3: inhibition of radioligand binding, human melanocortin (MC3) [8] | A1: inhibition of radioligand binding, human δ-opioid (DOP) [9] | A9: inhibition of radioligand binding, human neuropeptide Y (NPY-Y1) [10] | A6: inhibition of radioligand binding, human melanin-concentrating hormone (MCH1) [11] | further results
1 | COCC1OC(OCc2ccc3ccccc3c2)C(NC(=O)CCCN)C(OCc2ccc(-c3ccccc3)cc2)C1O (stereo not shown) [compound 245] |  |  |  |  |  |  |  |  |  |  |  | A7: inhibition of radioligand binding ([1]; FlashPlate): − (“−” indicates less than 50% inhibition at 10 μM); A11: inhibition of radioligand binding ([2]; FlashPlate): − (“−” indicates less than 50% inhibition at 10 μM); A10: inhibition of radioligand binding ([3]; FlashPlate): − (“−” indicates less than 50% inhibition at 10 μM); A5: inhibition of radioligand binding ([4]; FlashPlate): − (“−” indicates less than 50% inhibition at 10 μM); A4: inhibition of radioligand binding ([5]; FlashPlate): − (“−” indicates less than 50% inhibition at 10 μM); A2: inhibition of radioligand binding ([6]; filtration): − (“−” indicates less than 50% inhibition at 10 μM); A8: inhibition of radioligand binding ([7]; filtration): + (“+” indicates greater than 50% inhibition at 10 μM); A3: inhibition of radioligand binding ([8]; FlashPlate): − (“−” indicates less than 50% inhibition at 10 μM); A1: inhibition of radioligand binding ([9]; FlashPlate): − (“−” indicates less than 50% inhibition at 10 μM); A9: inhibition of radioligand binding ([10]; FlashPlate): − (“−” indicates less than 50% inhibition at 10 μM); A6: inhibition of radioligand binding ([11]; [125I]-S36057, FlashPlate): − (“−” indicates less than 50% inhibition at 10 μM)
2 | COC1C(O)C(COCc2ccc3ccccc3c2)OC(OCc2ccc(Cl)cc2)C1NC(=O)C1CCN(C(=N)N)CC1 (stereo not shown) [compound 349] | − (“−” indicates less than 50% inhibition at 10 μM) | − (“−” indicates less than 50% inhibition at 10 μM) | − (“−” indicates less than 50% inhibition at 10 μM) | + (“+” indicates greater than 50% inhibition at 10 μM) | − (“−” indicates less than 50% inhibition at 10 μM) | − (“−” indicates less than 50% inhibition at 10 μM) | + (“+” indicates greater than 50% inhibition at 10 μM) | − (“−” indicates less than 50% inhibition at 10 μM) | − (“−” indicates less than 50% inhibition at 10 μM) | − (“−” indicates less than 50% inhibition at 10 μM) | − (“−” indicates less than 50% inhibition at 10 μM) | 
3 | CSC1O[C@H](COCc2ccc(Cl)cc2)[C@@H](O)[C@@H](OCc2ccc(-c3ccccc3)cc2)[C@H]1NC(=O)CCNC(=N)N (stereo partly shown) [compound 291] | − (“−” indicates less than 50% inhibition at 10 μM) | − (“−” indicates less than 50% inhibition at 10 μM) | − (“−” indicates less than 50% inhibition at 10 μM) | − (“−” indicates less than 50% inhibition at 10 μM) | + (“+” indicates greater than 50% inhibition at 10 μM) | − (“−” indicates less than 50% inhibition at 10 μM) | + (“+” indicates greater than 50% inhibition at 10 μM) | − (“−” indicates less than 50% inhibition at 10 μM) | − (“−” indicates less than 50% inhibition at 10 μM) | − (“−” indicates less than 50% inhibition at 10 μM) | − (“−” indicates less than 50% inhibition at 10 μM) | 
4 | NCCC(=O)NC1C(OCc2ccc(Cl)cc2)OC(COCc2ccc3ccccc3c2)C(O)C1OCc1ccc2ccccc2c1 (single isomer, unassigned) [compound 478] | − (“−” indicates less than 50% inhibition at 10 μM) | − (“−” indicates less than 50% inhibition at 10 μM) |  | + (“+” indicates greater than 50% inhibition at 10 μM) |  | − (“−” indicates less than 50% inhibition at 10 μM) | + (“+” indicates greater than 50% inhibition at 10 μM) |  | − (“−” indicates less than 50% inhibition at 10 μM) | − (“−” indicates less than 50% inhibition at 10 μM) |  | A10: inhibition of radioligand binding, human opioid (ORL1) ([3]; 10 µM): − (“−” indicates less than 50% inhibition at 10 μM); A4: inhibition of radioligand binding, human melanocortin (MC4) ([5]; 10 µM): + (“+” indicates greater than 50% inhibition at 10 μM); A3: inhibition of radioligand binding, human melanocortin (MC3) ([8]; 10 µM): + (“+” indicates greater than 50% inhibition at 10 μM); A6: inhibition of radioligand binding, human melanin-concentrating hormone (MCH1) ([11]; 10 µM): + (“+” indicates greater than 50% inhibition at 10 μM)
5 | NCCCC(=O)NC1C(OCc2ccc(Cl)cc2)OC(COCc2ccc3ccccc3c2)C(O)C1OCc1ccc2ccccc2c1 (single isomer, unassigned) [compound 496] | + (“+” indicates greater than 50% inhibition at 10 μM) | − (“−” indicates less than 50% inhibition at 10 μM) | + (“+” indicates greater than 50% inhibition at 10 μM) | + (“+” indicates greater than 50% inhibition at 10 μM) | + (“+” indicates greater than 50% inhibition at 10 μM) | − (“−” indicates less than 50% inhibition at 10 μM) | + (“+” indicates greater than 50% inhibition at 10 μM) | + (“+” indicates greater than 50% inhibition at 10 μM) | − (“−” indicates less than 50% inhibition at 10 μM) | − (“−” indicates less than 50% inhibition at 10 μM) | + (“+” indicates greater than 50% inhibition at 10 μM) | 

Reference: patent US20080009418A1, “Selective Inhibitors” (Alchemia LTD., priority 2004, published 2008)
